From PubChem BioAssay AID1963974 (Molecular Pharmacology Branch, DTP, NCI, 2024)

Tested on: 648629-189-R-J1-PDC spheroids with HUVEC/MSC, viability
Assay: Anticancer human tumor 648629-189-R-J1-PDC patient-derived bladder carcinoma cell line growth inhibition [PI3K]
Conditions: for IC50: curve of first compound; for viability, T/C: stronger effect = lower value
Description: Combinatorial screen of targeted agents with the PI3K inhibitors inavolisib, alpelisib, duvelisib, and copanlisib in multi-cell type tumor spheroids
A high-throughput screen of multi-cell type tumor spheroids was designed to identify active combinations of targeted small molecules and PI3K pathway inhibitors. Complex spheroids include a stromal component modeled by human endothelial cells (HUVEC) and fibroblasts modeled by human mesenchymal stem cells (MSCs). The concentration ranges selected for each drug and investigational agent were based upon clinically achievable concentrations if the clinical Cmax of the agent was known.
Compounds. The drugs and investigational agents: inavolisib (NSC800729), alpelisib (NSC765974), duvelisib (NSC772469), copanlisib (NSC816437), ipatasertib (NSC767898), afuresertib (NSC778305), talazoparib (NSC767125), sapanisertib (NSC764658), selumetinib (NSC741078), tovorafenib (DAY101, NSC766906), vemurafenib (NSC761431), ravoxertinib (NSC781343), sotorasib (NSC818433), MRTX1133 (NSC 836407), abemaciclib (NSC 768073), palbociclib (NSC758247), venetoclax (NSC 766270), SY5609 (NSC837396), enzalutamide (NSC755605), and darolutamide (NSC825331), were obtained from the National Cancer Institute (NCI) Developmental Therapeutics Program Chemical Repository. The FDA-approved anticancer drug set is available from the NCI Developmental Therapeutics Program. […] The stock solutions were prepared in dimethyl sulfoxide (DMSO, Sigma-Aldrich, St. Louis, MO, cat. D2650) at 800-fold the tested concentration and stored at -70 degrees C prior to their use. All drugs and investigational agents were tested over a range starting from a high concentration at or near the clinical Cmax and decreasing in half-log increments. If the clinical Cmax for an agent had not been determined, the highest concentration tested was 10 microM.
Cell Culture. All cells were maintained in an incubator at 37 degrees C and 5% CO2 with 95% humidity. The PDC lines were cultured according to standard operating procedures established by the NCI PDMR (https://pdmr.cancer.gov/sops/default.htm). All PDCs were thawed and cultured in Matrigel-coated flasks prepared with a working solution of 1X Ham's F-12 nutrient mix, without supplementation (Invitrogen, Waltham, MA, cat. 11765054), 100 U/mL penicillin-streptomycin (Invitrogen, cat. 15140122), and 2.5% Matrigel (Corning Inc., Corning, NY, cat. 354248) for the first three passages. The 354836-022-R-J1-PDC, 475296-252-R-J1-PDC, and 997726-040-R-J2-PDC lines were cultured in 6A media, which includes advanced DMEM/F-12 (Thermo Fisher Scientific, cat. 12634028), 10 mM HEPES (Thermo Fisher Scientific, cat. 15630080), 1X GlutaMAX supplement (Thermo Fisher Scientific, cat. 35050061), 0.1 mg/mL primocin (InvivoGen, San Diego, CA, cat. ant-pm-2), 10% defined fetal bovine serum, heat inactivated (HyClone Laboratories Inc., Logan, UT, cat. SH30070.03HI), 50% L-WRN conditioned media (ATCC, cat. CRL-3276), 1.25 mM N-Acetyl-L-cysteine (Sigma-Aldrich, cat. A9165), 10 mM nicotinamide (Sigma-Aldrich, cat. N0636), 1X B-27 supplement (Thermo Fisher Scientific, cat. 17504044), 1X N-2 supplement (Thermo Fisher Scientific, cat. 17502048), and 10 microM Y-27632 dihydrochloride (Tocris Bioscience, Bristol, United Kingdom, cat. 1254). The 624824-186-R-J2-PDC line was cultured in 6C/Colon 1B media, which includes all 6A media components plus 50 ng/mL human EGF recombinant protein (Thermo Fisher Scientific, cat. PHG0311). […]

[1] = second compound 0.00316 µM, first compound 0.0316 µM
[2] = second compound 0.00316 µM, first compound 0.1 µM
[3] = second compound 0.00316 µM, first compound 0.316 µM
[4] = second compound 0.00316 µM, first compound 1 µM
[5] = second compound 0.00316 µM, first compound 3.16 µM
[6] = second compound 0.00316 µM, first compound 10 µM
[7] = second compound 0.01 µM, first compound 0.0316 µM
[8] = second compound 0.01 µM, first compound 0.1 µM
[9] = second compound 0.01 µM, first compound 0.316 µM
[10] = second compound 0.01 µM, first compound 1 µM
[11] = second compound 0.01 µM, first compound 3.16 µM
[12] = second compound 0.01 µM, first compound 10 µM
[13] = second compound 0.0316 µM, first compound 0.0316 µM
[14] = second compound 0.0316 µM, first compound 0.1 µM
[15] = second compound 0.0316 µM, first compound 0.316 µM
[16] = second compound 0.0316 µM, first compound 1 µM
[17] = second compound 0.0316 µM, first compound 3.16 µM
[18] = second compound 0.0316 µM, first compound 10 µM
[19] = second compound 0.1 µM, first compound 0.0316 µM
[20] = second compound 0.1 µM, first compound 0.1 µM
[21] = second compound 0.1 µM, first compound 0.316 µM
[22] = second compound 0.1 µM, first compound 1 µM
[23] = second compound 0.1 µM, first compound 3.16 µM
[24] = second compound 0.1 µM, first compound 10 µM
[25] = second compound 0.316 µM, first compound 0.0316 µM
[26] = second compound 0.316 µM, first compound 0.1 µM
[27] = second compound 0.316 µM, first compound 0.316 µM
[28] = second compound 0.316 µM, first compound 1 µM
[29] = second compound 0.316 µM, first compound 3.16 µM
[30] = second compound 0.316 µM, first compound 10 µM
[31] = second compound 1 µM, first compound 0.0316 µM
[32] = second compound 1 µM, first compound 0.1 µM
[33] = second compound 1 µM, first compound 0.316 µM
[34] = second compound 1 µM, first compound 1 µM
[35] = second compound 1 µM, first compound 3.16 µM
[36] = second compound 1 µM, first compound 10 µM
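Note: spheroids exposed to agents for seven days before reading.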
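Throughout, for viability, T/C: percent of vehicle control luminescence where 100% = DMSO treated spheroids.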

## CC(Cn1ccc(-c2ccc(C#N)c(Cl)c2)n1)NC(=O)c1cc(C(C)O)[nH]n1 (centres undefined) + CC(Nc1ccc2c(c1)OCCn1cc(N3C(=O)OCC3C(F)F)nc1-2)C(N)=O
Second compound 0.00316 µM
  IC50: > 10 µM
Second compound 0.01 µM
  IC50: > 10 µM
Second compound 0.0316 µM
  IC50: > 10 µM
Second compound 0.1 µM
  IC50: > 10 µM
Second compound 0.316 µM
  IC50: > 10 µM
Second compound 1 µM
  IC50: > 10 µM
[1]
  viability, T/C: 99.9%
[2]
  viability, T/C: 97.1%
[3]
  viability, T/C: 92.5%
[4]
  viability, T/C: 90.1%
[5]
  viability, T/C: 85.7%
[6]
  viability, T/C: 68.3%
[7]
  viability, T/C: 92.7%
[8]
  viability, T/C: 97.2%
[9]
  viability, T/C: 92.9%
[10]
  viability, T/C: 88.3%
[11]
  viability, T/C: 89.9%
[12]
  viability, T/C: 70.4%
[13]
  viability, T/C: 97.2%
[14]
  viability, T/C: 98.7%
[15]
  viability, T/C: 95.2%
[16]
  viability, T/C: 83.5%
[17]
  viability, T/C: 83.8%
[18]
  viability, T/C: 75.5%
[19]
  viability, T/C: 106%
[20]
  viability, T/C: 86.9%
[21]
  viability, T/C: 85.8%
[22]
  viability, T/C: 86.2%
[23]
  viability, T/C: 84.5%
[24]
  viability, T/C: 72%
[25]
  viability, T/C: 83.8%
[26]
  viability, T/C: 87.5%
[27]
  viability, T/C: 78.1%
[28]
  viability, T/C: 94.2%
[29]
  viability, T/C: 72.8%
[30]
  viability, T/C: 58.2%
[31]
  viability, T/C: 73.2%
[32]
  viability, T/C: 71.6%
[33]
  viability, T/C: 61.5%
[34]
  viability, T/C: 67.6%
[35]
  viability, T/C: 60%
[36]
  viability, T/C: 57.9%

## Cn1nccc1Nc1nccc(-c2ccn(C(CO)c3ccc(Cl)c(F)c3)c(=O)c2)n1 (centres undefined) + CC(Nc1ccc2c(c1)OCCn1cc(N3C(=O)OCC3C(F)F)nc1-2)C(N)=O
Second compound 0.00316 µM
  IC50: > 10 µM
Second compound 0.01 µM
  IC50: > 10 µM
Second compound 0.0316 µM
  IC50: > 10 µM
Second compound 0.1 µM
  IC50: > 10 µM
Second compound 0.316 µM
  IC50: > 10 µM
Second compound 1 µM
  IC50: > 10 µM
[1]
  viability, T/C: 103%
[2]
  viability, T/C: 105%
[3]
  viability, T/C: 111%
[4]
  viability, T/C: 109%
[5]
  viability, T/C: 109%
[6]
  viability, T/C: 79.3%
[7]
  viability, T/C: 111%
[8]
  viability, T/C: 93%
[9]
  viability, T/C: 102%
[10]
  viability, T/C: 108%
[11]
  viability, T/C: 105%
[12]
  viability, T/C: 81.2%
[13]
  viability, T/C: 107%
[14]
  viability, T/C: 101%
[15]
  viability, T/C: 97.4%
[16]
  viability, T/C: 103%
[17]
  viability, T/C: 106%
[18]
  viability, T/C: 79.1%
[19]
  viability, T/C: 97.2%
[20]
  viability, T/C: 97.5%
[21]
  viability, T/C: 84.9%
[22]
  viability, T/C: 103%
[23]
  viability, T/C: 85.1%
[24]
  viability, T/C: 73%
[25]
  viability, T/C: 82.1%
[26]
  viability, T/C: 86%
[27]
  viability, T/C: 82.7%
[28]
  viability, T/C: 99.8%
[29]
  viability, T/C: 78.3%
[30]
  viability, T/C: 68.8%
[31]
  viability, T/C: 66.2%
[32]
  viability, T/C: 67%
[33]
  viability, T/C: 70.3%
[34]
  viability, T/C: 76.3%
[35]
  viability, T/C: 73%
[36]
  viability, T/C: 62.3%
